Assay results from patent publication US10689331B2, “IDO inhibitors” (Bristol-Myers Squibb Company, priority 2015, dated 2020).

Each molecule was assayed against T1, human IDO1 (Homo sapiens, UniProt P14902) (assay: HEK Human IDO-1 inhibition assay (kynurenine readout, Ehrlich reagent, absorbance 490 nm)). Conditions: human IDO1/HEK293 cells, incubated 20 hours with compound; 500 nM reference standard = 100% inhibition.
T1 construct: expressed in transfected cells
T1 sequence (P14902 whole entry): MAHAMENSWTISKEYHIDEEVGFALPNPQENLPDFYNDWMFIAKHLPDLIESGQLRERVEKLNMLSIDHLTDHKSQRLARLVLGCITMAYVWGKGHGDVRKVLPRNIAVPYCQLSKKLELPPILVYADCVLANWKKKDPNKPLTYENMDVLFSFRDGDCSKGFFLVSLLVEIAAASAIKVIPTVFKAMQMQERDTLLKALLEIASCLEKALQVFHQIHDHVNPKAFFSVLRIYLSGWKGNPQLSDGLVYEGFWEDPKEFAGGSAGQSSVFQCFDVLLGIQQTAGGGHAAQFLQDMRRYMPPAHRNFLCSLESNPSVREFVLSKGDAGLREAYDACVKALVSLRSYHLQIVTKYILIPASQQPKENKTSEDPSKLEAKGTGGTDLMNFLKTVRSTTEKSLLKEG
Format: cell-based
Description: HEK293 cells were transfected with a pCDNA-based mammalian expression vector harboring human IDO1 cDNA (NM 002164.2) by electroporation. They were cultured in medium (DMEM with 10% FBS) containing 1 mg/ml G418 for two weeks. Clones of HEK293 cells that stably expressed human IDO1 protein were selected and expanded for IDO inhibition assay.
The human IDO1/HEK293 cells were seeded at 10,000 cells per 50 uL per well with RPMI/phenol red free media contains 10% FBS in a 384-well black wall clear bottom tissue culture plate (Matrix Technologies LLC) 100 nL of certain concentration of compound was then added to each well using ECHO liquid handling systems. The cells were incubated for 20 hours in 37° C. incubator with 5% CO2.
The compound treatments were stopped by adding Trichloroacetic Acid (Sigma-Aldrich) to a final concentration at 0.2%. The cell plate was further incubated at 50° C. for 30 minute. The equal volume supernatant (20 uL) and 0.2% (w/v) Ehrlich reagent (4-dimethylaminobenzaldehyde, Sigma-Aldrich) in glacial acetic acid were mixed in a new clear bottom 384-well plate. This plate was then incubated at room temperature for 30 minute. The absorbance at 490 nm was measured on Envision plate reader. Compound IC50 values were calculated using the counts of 500 nM of a reference standard treatment as one hundred percent inhibition, and counts of no compound but DMSO treatment as zero percent inhibition.
`COc1ccc(NC(=O)Nc2cc(OC(C)C(=O)O)ccc2N(CC(C)C)C2CCCCC2)c(F)c1` (single isomer, unassigned) [Example 64-1, 2-(4-(cyclohexyl(isobutyl)amino)-3-(3-(2-fluoro-4-methoxyphenyl)ureido)phenoxy)propanoic acid] was tested, and the IC50 was < 100 nM.
For `COc1ccc(NC(=O)Nc2cc(OC(C)C(=O)O)ccc2N(CC(C)C)C2CCCCC2)c(F)c1` (single isomer, unassigned) [Example 64-2, 2-(4-(cyclohexyl(isobutyl)amino)-3-(3-(2-fluoro-4-methoxyphenyl)ureido)phenoxy)propanoic acid], the IC50 was < 5 nM.
`Cc1ccc(NC(=O)Nc2cc(OC(C)C(=O)O)ccc2N(CC(C)C)C2CCCCC2)c(F)c1` (single isomer, unassigned) [Example 65-1, 2-(4-(cyclohexyl(isobutyl)amino)-3-(3-(2-fluoro-4-methylphenyl)ureido)phenoxy)propanoic acid] was tested, and the IC50 was < 100 nM.
In the case of `Cc1ccc(NC(=O)Nc2cc(OC(C)C(=O)O)ccc2N(CC(C)C)C2CCCCC2)c(F)c1` (single isomer, unassigned) [Example 65-2, 2-(4-(cyclohexyl(isobutyl)amino)-3-(3-(2-fluoro-4-methylphenyl)ureido)phenoxy)propanoic acid], the IC50 is reported as < 5 nM.
For `CC(C)CN(c1ccc(OC(C)C(=O)O)cc1NC(=O)Nc1ccc(C#N)cc1)C1CCCCC1` (single isomer, unassigned) [Example 66-1, 2-(3-(3-(4-cyanophenyl)ureido)-4-(cyclohexyl(isobutyl)amino)phenoxy)propanoic acid], the IC50 was < 100 nM.
For `CC(C)CN(c1ccc(OC(C)C(=O)O)cc1NC(=O)Nc1ccc(C#N)cc1)C1CCCCC1` (single isomer, unassigned) [Example 66-2, 2-(3-(3-(4-cyanophenyl)ureido)-4-(cyclohexyl(isobutyl)amino)phenoxy)propanoic acid], the IC50 was < 5 nM.
For `CCOC(=O)C(C)Oc1ccc(N(CC(C)C)C2CCCCC2)c(NC(=O)Nc2ccc(Cl)cc2F)c1` (single isomer, unassigned) [Example 67-1, ethyl 2-(3-(3-(4-chloro-2-fluorophenyl)ureido)-4-(cyclohexyl(isobutyl)amino)phenoxy)propanoate], the IC50 was < 100 nM.
For `CCOC(=O)C(C)Oc1ccc(N(CC(C)C)C2CCCCC2)c(NC(=O)Nc2ccc(Cl)cc2F)c1` (single isomer, unassigned) [Example 67-2, ethyl 2-(3-(3-(4-chloro-2-fluorophenyl)ureido)-4-(cyclohexyl(isobutyl)amino)phenoxy)propanoate], the IC50 was < 5 nM.
In the case of `CCC(Oc1ccc(N(CC(C)C)C2CCCCC2)c(NC(=O)Nc2ccc(Cl)cc2F)c1)C(=O)O` (single isomer, unassigned) [Example 80-1, 2-(3-(3-(4-chloro-2-fluorophenyl)ureido)-4-(cyclohexyl(isobutyl)amino)phenoxy)butanoic acid], the IC50 is reported as < 5 nM.
In the case of `CCC(Oc1ccc(N(CC(C)C)C2CCCCC2)c(NC(=O)Nc2ccc(Cl)cc2F)c1)C(=O)O` (single isomer, unassigned) [Example 80-2, 2-(3-(3-(4-chloro-2-fluorophenyl)ureido)-4-(cyclohexyl(isobutyl)amino)phenoxy)butanoic acid], the IC50 is reported as < 5 nM.
With `CCC(Oc1ccc(N(CC(C)C)C2CCCCC2)c(NC(=O)Nc2ccccc2F)c1)C(=O)O` (single isomer, unassigned) [Example 81-1, 2-(4-(cyclohexyl(isobutyl)amino)-3-(3-(2-fluorophenyl)ureido)phenoxy)butanoic acid] the IC50 was < 5 nM.
For `CCC(Oc1ccc(N(CC(C)C)C2CCCCC2)c(NC(=O)Nc2ccccc2F)c1)C(=O)O` (single isomer, unassigned) [Example 81-2, 2-(4-(cyclohexyl(isobutyl)amino)-3-(3-(2-fluorophenyl)ureido)phenoxy)butanoic acid], the IC50 was < 5 nM.
`CCC(Oc1ccc(N(CC(C)C)C2CCCCC2)c(NC(=O)Nc2ccc(C)cc2)c1)C(=O)O` (single isomer, unassigned) [Example 82-1, 2-(4-(cyclohexyl(isobutyl)amino)-3-(3-(p-tolyl)ureido)phenoxy)butanoic acid] was tested, and the IC50 was < 5 nM.
For `CCC(Oc1ccc(N(CC(C)C)C2CCCCC2)c(NC(=O)Nc2ccc(C)cc2)c1)C(=O)O` (single isomer, unassigned) [Example 82-2, 2-(4-(cyclohexyl(isobutyl)amino)-3-(3-(p-tolyl)ureido)phenoxy)butanoic acid], the IC50 was < 100 nM.
For `CCCC(Oc1ccc(N(CC(C)C)C2CCCCC2)c(NC(=O)Nc2ccc(Cl)cc2F)c1)C(=O)O` (single isomer, unassigned) [Example 85-1, 2-(3-(3-(4-chloro-2-fluorophenyl)ureido)-4-(cyclohexyl(isobutyl)amino)phenoxy)pentanoic acid], the IC50 was < 5 nM.
For `CCCC(Oc1ccc(N(CC(C)C)C2CCCCC2)c(NC(=O)Nc2ccc(Cl)cc2F)c1)C(=O)O` (single isomer, unassigned) [Example 85-2, 2-(3-(3-(4-chloro-2-fluorophenyl)ureido)-4-(cyclohexyl(isobutyl)amino)phenoxy)pentanoic acid], the IC50 was < 5 nM.
`CCCC(Oc1ccc(N(CC(C)C)C2CCCCC2)c(NC(=O)Nc2ccc(C)cc2)c1)C(=O)O` (single isomer, unassigned) [Example 86-1, 2-(4-(cyclohexyl(isobutyl)amino)-3-(3-(p-tolyl)ureido)phenoxy)pentanoic acid] was tested, and the IC50 was < 100 nM.
In the case of `CCCC(Oc1ccc(N(CC(C)C)C2CCCCC2)c(NC(=O)Nc2ccc(C)cc2)c1)C(=O)O` (single isomer, unassigned) [Example 86-2, 2-(4-(cyclohexyl(isobutyl)amino)-3-(3-(p-tolyl)ureido)phenoxy)pentanoic acid], the IC50 is reported as < 5 nM.
With `CCCC(Oc1ccc(N(CC(C)C)C2CCCCC2)c(NC(=O)Nc2ccccc2F)c1)C(=O)O` (single isomer, unassigned) [Example 87-1, 2-(4-(cyclohexyl(isobutyl)amino)-3-(3-(2-fluorophenyl)ureido)phenoxy)pentanoic acid] the IC50 was < 5 nM.
In the case of `CCCC(Oc1ccc(N(CC(C)C)C2CCCCC2)c(NC(=O)Nc2ccccc2F)c1)C(=O)O` (single isomer, unassigned) [Example 87-2, 2-(4-(cyclohexyl(isobutyl)amino)-3-(3-(2-fluorophenyl)ureido)phenoxy)pentanoic acid], the IC50 is reported as < 5 nM.
In the case of `CCCC(Oc1ccc(N(CC(C)C)C2CCCCC2)c(NC(=O)Nc2cncnc2)c1)C(=O)O` (single isomer, unassigned) [Example 88-1, 2-(4-(cyclohexyl(isobutyl)amino)-3-(3-(pyrimidin-5-yl)ureido)phenoxy)pentanoic acid], the IC50 is reported as ≥ 100 nM.
With `CCCC(Oc1ccc(N(CC(C)C)C2CCCCC2)c(NC(=O)Nc2cncnc2)c1)C(=O)O` (single isomer, unassigned) [Example 88-2, 2-(4-(cyclohexyl(isobutyl)amino)-3-(3-(pyrimidin-5-yl)ureido)phenoxy)pentanoic acid] the IC50 was < 100 nM.
With `COCC(Oc1ccc(N(CC(C)C)C2CCCCC2)c(NC(=O)Nc2ccc(Cl)cc2F)c1)C(=O)O` (single isomer, unassigned) [Example 89-1, 2-(3-(3-(4-chloro-2-fluorophenyl)ureido)-4-(cyclohexyl(isobutyl)amino)phenoxy)-3-methoxypropanoic acid] the IC50 was < 5 nM.
